Entries after “also recorded” stand apart in the source; their conditions may differ.
Legend:
[1] = test system: NO production in RAW cells; test: Inhibition of NO production in RAW cells stimulated with interferon-γ; type: cell-based, mouse
[2] = test system: U937 human leukemia cells; test: Proliferation of U937 human leukemia cells (Coulter counter); type: cell-based; settings: FIG. 1; treated 3-4 days
Experimental: (§1) FIG. 1. TBEs inhibit proliferation of RMPI 8226 human myeloma cells and U937 human leukemia cells. Cells were treated with TBEs and triterpenoids for 3-4 days and counted by Coulter counter. […] CDDO is presently in clinical trial for treatment of acute myelogenous leukemia. TP-235 is the imidazolide derivative of CDDO.
(§2) Cells were treated with triterpenoids and TBEs for 3-4 days and counted by Coulter counter. […] CDDO is presently in clinical trial for treatment of acute myelogenous leukemia. TP-235 is the imidazolide derivative of CDDO.

[3] = test system: iNOS; test: Inhibition of iNOS induction in RAW cells stimulated with IFN-γ (Western blot); type: cell-based, mouse; settings: FIG. 5; IFNg 10 ng/ml, 24 hours
[4] = test system: U937 cells; test: Apoptosis in U937 cells (Annexin V); type: cell-based, human; settings: FIG. 8, 24 hours
Experimental: FIG. 8. Induction of apoptosis in U937 cells by TBEs. Cells were treated with TBEs and triterpenoids for 24 hours.
Cells were treated for 24 hours.

[5] = test system: RMPI 8226 human myeloma cells; test: Proliferation of RMPI 8226 human myeloma cells (Coulter counter); type: cell-based; settings: FIG. 1; treated 3-4 days
Experimental: as §1, §2

[6] = test system: heme oxygenase-1; test: Induction of heme oxygenase-1 in liver of CD-1 mice after gavage; type: in vivo
Experimental: FIG. 3. […] CD-1 mice (2 per group) were gavaged with TBEs or CDDO-Im in DMSO. After 6 h, livers were harvested and homogenized. Lysates were separated by SDS-PAGE, probed with HO-1 antibodies, and developed by ECL.
FIG. 11. […] Male CD-1 mice (3 per group) were gavaged with 1 μmol TBEs, CDDO or CDDO-Im in DMSO. Six hours later, livers were harvested and homogenized. Lysates were separated by SDS-PAGE, probed with HO-1 antibodies, and developed by ECL.
CD-1 mice (2 per group) were gavaged with TBEs or CDDO-Im in DMSO. After 6 h, livers were harvested and homogenized. Lysates were separated by SDS-PAGE, probed with HO-1 antibodies, and developed by ECL.

[7] = test system: CD11b expression in U937 cells; test: CD11b expression in U937 cells (FACS); type: cell-based, human; settings: FIG. 4; 10-100 nM, 4 days
Experimental: FIG. 4. TBE-31 induces CD11b expression in U937 cells. Cells were incubated with CDDO-Im or TBE-31 (10-100 nM) for 4 days. CD11b expression was measured by FACS analysis. Induction of CD11b is a marker of leukemia cell differentiation.
Cells were incubated with CDDO-Im or TBE-31 (10-100 nM) for 4 days. CD11b expression was measured by FACS analysis. Induction of CD11b is a marker of leukemia cell differentiation.

[8] = test system: heme oxygenase-1; test: Induction of heme oxygenase-1 in stomach of CD-1 mice after gavage; type: in vivo; settings: FIG. 12; male CD-1 mice, 1 μmol by gavage in DMSO, six hours
Text: FIG. 12. […] Male CD-1 mice (3 per group) were gavaged with 1 μmol TBEs, CDDO or CDDO-Im in DMSO. Six hours later, stomachs were harvested and homogenized. Lysates were separated by SDS-PAGE, probed with HO-1 antibodies, and developed by ECL.

[9] = test system: heme oxygenase-1; test: Induction of heme oxygenase-1 in U937 cells (Western blot); type: cell-based, human; settings: FIG. 2; 0.1-1 μM, 7 hours
Experimental: FIG. 2. […] Cells were incubated with TBEs and triterpenoids (0.1-1 μM) for 7 hours. Total cell lysates were analyzed by SDS-PAGE, probed with an HO-1 antibody, and developed by ECL. […] None of the other TBEs that were tested provided significant induction of heme oxygenase.
Cells were incubated with triterpenoids or TBEs (0.1-1 μM) for 7 hours. Total cell lysates were analyzed by SDS-PAGE, probed with an HO-1 antibody, and developed by ECL. […] None of the other TBEs that were tested provided significant induction of heme oxygenase.

[10] = test system: aflatoxin-induced tumorigenesis; design: species or system F344 rats; settings: rat, in vivo
[11] = test system: A549 human lung cancer cells; test: Apoptosis in A549 human lung cancer cells; type: cell-based; settings: FIG. 7; 24 h
Experimental: FIG. 7. TBE-31 induces apoptosis in A549 human lung cancer cells. Cells were treated with TBE-31 for 24 h. A549 is a classic human lung cancer cell line.
Cells were treated for 24 h. A549 is a classic human lung cancer cell line.

[12] = test system: Jurkat cells; test: Proliferation of Jurkat cells (Coulter counter); type: cell-based; settings: FIG. 6; 3-4 days
Experimental: FIG. 6. TBEs inhibit proliferation of Jurkat cells. Cells were treated with TBEs and triterpenoids for 3-4 days and counted by Coulter counter. […] Thus, it is to be expected that TBEs may have useful activities in regulation of lymphocyte, as well as macrophage, function.
Cells were treated with TBEs for 3-4 days and counted by Coulter counter.

[13] = test system: HO-1; test: Induction of HO-1 in RAW cells (Western blot); type: cell-based, mouse; settings: FIG. 9; 30-300 nM, 24 hours

C#CC12C=C(C#N)C(=O)C=C1C1(C)C=C(C#N)C(=O)C(C)(C)C1CC2 (racemic) [TBE-31, 10a-ethynyl-4b,8,8-trimethyl-3,7-dioxo-3,4b,7,8,8a,9,10,10a-octahydrophenanthrene-2,6-dicarbonitrile]
IC50 ([1]; Mus musculus, Table 5, C-8a functionalized TBE-9 analogs, stimulated with interferon-γ, read-out: IC50 (nM), NO production in RAW cells): 1 nM | Potency for inhibition of NO production in RAW cells (in words) ([1]; RAW cells, interferon-γ): extremely potent at one nanomolar concentrations; also recorded: higher than CDDO and equal to TP-225 | Inhibition of proliferation of U937 human leukemia cells [2]: by far the most potent; also recorded: more potent than CDDO | Suppression of induction of iNOS in RAW 264.7 cells [3]: potent suppressor of induction of iNOS; also recorded: significantly more potent than CDDO, and almost as potent as CDDO-Imidazolide | Induction of apoptosis in U937 cells [4]: most active of the TBEs; also recorded: markedly more active than CDDO (TP-151) | Inhibition of proliferation of RMPI 8226 human myeloma cells [5]: by far the most potent; also recorded: equivalent to that of CDDO itself (TP-151) | Induction of heme oxygenase-1 in liver in vivo ([6]; FIG. 3, CD-1 mice, gavage in DMSO, livers after 6 h): orally active agent; also recorded: comparable to that found with CDDO-Imidazolide | Induction of heme oxygenase-1 in liver ([6]; FIG. 11, male CD-1 mice, 1 μmol by gavage in DMSO, six hours): potent inducer of heme oxygenase-1 in liver | Induction of CD11b expression in U937 cells [7]: strongly induces CD11b at 100 nM; also recorded: comparable to that of CDDO-Im at 10 and 30 nM; also recorded: more potent than CDDO-Im at 100 nM | Induction of heme oxygenase-1 in stomach [8]: induces heme oxygenase-1 in stomach | Induction of heme oxygenase-1 in U937 cells [9]: potent inducer of heme oxygenase; also recorded: markedly more potent than TP-151 (CDDO), and almost as potent as TP-235 | Formation of preneoplastic (GST-P positive) foci in liver [10]: reduces the formation of preneoplastic foci | Induction of apoptosis in A549 cells [11]: can induce both early and late apoptosis | Inhibition of proliferation of Jurkat cells [12]: extremely active, more so than CDDO (TP-151) | Induction of HO-1 in RAW cells [13]: higher inducer than CDDO-Im

Reference: patent US8067394B2, “Synthesis and biological activities of new tricyclic-bis-enones (TBEs)” (Trustees of Dartmouth College, priority 2006, dated 2011)
